≈ marks a conversion by molar mass, not a printed value. Like-named read-outs stand apart in the source and are kept apart here. Non-standard residues stand in square brackets, D forms with d. Residues, ends and D or L forms follow the SMILES beside them. Dab(3S-OH) = NC[C@H](O)[C@H](N)C(=O)O; Phe(2-F) = N[C@@H](Cc1ccccc1F)C(=O)O; ΔZArg = N=C(N)NCC/C=C(\N)C(=O)O; dOrn = NCCC[C@@H](N)C(=O)O; Dab = NCC[C@H](N)C(=O)O
Columns and labels:
in vitro [1] = settings: plasma (EDTA anticoagulant), pH 7.4
Protocol: The […] were performed by Cyprotex Discovery Ltd. (Macclesfield, UK). […] The experiment was performed using equilibrium dialysis (RED device) with the two compartments separated by a semipermeable membrane. Buffer (pH 7.4) was added to one side of the membrane and the plasma solution to the other. After equilibration (4 h), samples were taken from both sides of the membrane. Calibration standards were prepared in plasma and buffer. All incubations were performed in triplicate. A control compound was included in each experiment. Incubation of the control compound samples was terminated with acetonitrile containing an internal standard (metoprolol). Incubation of the test compound samples was terminated with 40% TCA in water containing in internal standard (NOSO-95216; 1 μM final concentration). All samples were centrifuged and further diluted with water prior to analysis. The solutions for each batch of control compounds were combined into two groups (protein free and protein containing) and cassette analyzed by LC-MS/MS using two sets of calibration standards for protein-free (seven points) and protein-containing solutions (seven points).

in vitro [2] = settings: liver microsomes, pH 7.4
Protocol: The microsome metabolic stability assays were performed by Cyprotex Discovery Ltd. (Macclesfield, UK). Pooled microsomes from different species (mouse, rat, dog, monkey, and human) were stored at −80°C prior to use. […] The final incubation volume was 500 μl. A minus cofactor control incubation was included for each compound tested, in which 0.1 M phosphate buffer (pH 7.4) was added instead of NADPH (minus NADPH). Two control compounds were included with each species. Each compound was incubated for 0, 5, 15, 30, and 45 min. The control (minus NADPH) was incubated for 45 min only. The reactions were stopped by transferring an aliquot of the mixture to 40% TCA in water containing an internal standard (NOSO-95216, 1 μM final concentration) for the test compounds, or methanol for the control compounds, at the desired time points. The termination plates were centrifuged at 2,500 rpm for 20 min at 4°C to precipitate the protein. Following protein precipitation, the test compound sample supernatants were diluted with analytical-grade water, whereas the control compounds were diluted with an internal standard (metoprolol) in water. The test compound samples were analyzed by LC-MS/MS.

Escherichia coli MIN = settings: Ambler class A carbapenemase; KPC-3 + OXA-9
Excerpt: (§1) Reference strains are from the German Collection of Microorganisms and Cell Cultures (DSMZ), the American Type Culture Collection (ATCC), the National Collection of Type Cultures (NCTC), and the Medical and Molecular Microbiology, Faculty of Science and Medicine, University of Fribourg, Switzerland.

[3] = test system: Polymyxin B-resistant E. coli (2)
Excerpt: as §1

[4] = test system: Klebsiella pneumoniae, colistin resistant (46)
Excerpt: as §1

Citrobacter freundii MAU = settings: Ambler class C carbapenem resistant; AmpC overexpressed + TEM-3
Excerpt: as §1

[5] = biological target: Nav 1.5 human sodium ion channel (Homo sapiens, UniProt Q14524); experiment: cell-based
Protocol: Inhibition of the Nav 1.5 human sodium ion channel was determined by Eurofins Panlabs in HEK-293 cells stably transfected with human Nav1.5 cDNA (type V voltage-gated sodium channel alpha subunit, GenBank accession number NM_000335) using IonWorks Quattro automated whole-cell patch clamp electrophysiology. […] In this method, the voltage protocol is applied prior to compound addition (Pre), the compounds are added and incubated for 600 s at room temperature, and then the voltage protocol is applied a final time (Post) on the IonWorks Quattro.

E. coli EN122 = settings: ESBL, clinical isolate
Protocol: (§2) MIC values were determined using Clinical and Laboratory Standards Institute (CLSI) broth microdilution methodology, colony direct suspension, as described in CLSI document M07-A10 ([42]).

CHO-K1 cells = settings: 512 μM, 24 h; S9 medium negative control 0.7%
Protocol: The test was conducted by Eurofins Panlabs. […] At the end of the incubation period the cells were fixed, and their DNA was stained with Hoechst. The visualization and scoring of the cells was done using an automated fluorescence microscope coupled with proprietary automated image analysis software ([46]). The percent micronucleated cells was calculated.

in vitro [6] = settings: plasma, pH 7.4
Protocol: The final incubation volume was 200 μl. All incubations were performed singularly for each compound at each time point. A vehicle control incubation was included using either water or DMSO, along with a control compound known to be metabolized specifically by each species. Each compound was incubated for 0, 15, 30, 60, and 120 min at 37°C. The reactions were stopped by the addition of 40% TCA in water containing an internal standard (NOSO-95216, 1 μM final concentration) for the test compounds, or methanol for the control compounds, at the appropriate time points. The vehicle control incubation was incubated for 120 min only. The termination plates were centrifuged at 3,000 rpm for 45 min at 4°C to precipitate the protein. Following protein precipitation, the test compound sample supernatants were diluted with analytical-grade water, whereas the control compounds were diluted with an internal standard (metoprolol) in water. The test compound samples were analyzed by LC-MS/MS.

Escherichia coli DOV = settings: Ambler class D carbapenemase; OXA-48 + TEM-1 + CTX-M15 + OXA-1
Excerpt: as §1

[7] = test system: Enterobacter cloacae KBM15; settings: Ambler class A carbapenemase; KPC-2 + TEM-1 + OXA-9
Excerpt: as §1

Escherichia coli COL = settings: Ambler class A carbapenemase; KPC-2 + TEM-1 + CTX-M9
Excerpt: as §1

Escherichia coli GAL = settings: Ambler class B carbapenemase; NDM-6 + OXA-1 + CTX-M15
Excerpt: as §1

Escherichia coli PSP = settings: Ambler class A carbapenemase; KPC-2 + TEM-1 + OXA-1
Excerpt: as §1

Sequence of Nav 1.5 human sodium ion channel (Q14524 1-2015 isoform Q14524-2): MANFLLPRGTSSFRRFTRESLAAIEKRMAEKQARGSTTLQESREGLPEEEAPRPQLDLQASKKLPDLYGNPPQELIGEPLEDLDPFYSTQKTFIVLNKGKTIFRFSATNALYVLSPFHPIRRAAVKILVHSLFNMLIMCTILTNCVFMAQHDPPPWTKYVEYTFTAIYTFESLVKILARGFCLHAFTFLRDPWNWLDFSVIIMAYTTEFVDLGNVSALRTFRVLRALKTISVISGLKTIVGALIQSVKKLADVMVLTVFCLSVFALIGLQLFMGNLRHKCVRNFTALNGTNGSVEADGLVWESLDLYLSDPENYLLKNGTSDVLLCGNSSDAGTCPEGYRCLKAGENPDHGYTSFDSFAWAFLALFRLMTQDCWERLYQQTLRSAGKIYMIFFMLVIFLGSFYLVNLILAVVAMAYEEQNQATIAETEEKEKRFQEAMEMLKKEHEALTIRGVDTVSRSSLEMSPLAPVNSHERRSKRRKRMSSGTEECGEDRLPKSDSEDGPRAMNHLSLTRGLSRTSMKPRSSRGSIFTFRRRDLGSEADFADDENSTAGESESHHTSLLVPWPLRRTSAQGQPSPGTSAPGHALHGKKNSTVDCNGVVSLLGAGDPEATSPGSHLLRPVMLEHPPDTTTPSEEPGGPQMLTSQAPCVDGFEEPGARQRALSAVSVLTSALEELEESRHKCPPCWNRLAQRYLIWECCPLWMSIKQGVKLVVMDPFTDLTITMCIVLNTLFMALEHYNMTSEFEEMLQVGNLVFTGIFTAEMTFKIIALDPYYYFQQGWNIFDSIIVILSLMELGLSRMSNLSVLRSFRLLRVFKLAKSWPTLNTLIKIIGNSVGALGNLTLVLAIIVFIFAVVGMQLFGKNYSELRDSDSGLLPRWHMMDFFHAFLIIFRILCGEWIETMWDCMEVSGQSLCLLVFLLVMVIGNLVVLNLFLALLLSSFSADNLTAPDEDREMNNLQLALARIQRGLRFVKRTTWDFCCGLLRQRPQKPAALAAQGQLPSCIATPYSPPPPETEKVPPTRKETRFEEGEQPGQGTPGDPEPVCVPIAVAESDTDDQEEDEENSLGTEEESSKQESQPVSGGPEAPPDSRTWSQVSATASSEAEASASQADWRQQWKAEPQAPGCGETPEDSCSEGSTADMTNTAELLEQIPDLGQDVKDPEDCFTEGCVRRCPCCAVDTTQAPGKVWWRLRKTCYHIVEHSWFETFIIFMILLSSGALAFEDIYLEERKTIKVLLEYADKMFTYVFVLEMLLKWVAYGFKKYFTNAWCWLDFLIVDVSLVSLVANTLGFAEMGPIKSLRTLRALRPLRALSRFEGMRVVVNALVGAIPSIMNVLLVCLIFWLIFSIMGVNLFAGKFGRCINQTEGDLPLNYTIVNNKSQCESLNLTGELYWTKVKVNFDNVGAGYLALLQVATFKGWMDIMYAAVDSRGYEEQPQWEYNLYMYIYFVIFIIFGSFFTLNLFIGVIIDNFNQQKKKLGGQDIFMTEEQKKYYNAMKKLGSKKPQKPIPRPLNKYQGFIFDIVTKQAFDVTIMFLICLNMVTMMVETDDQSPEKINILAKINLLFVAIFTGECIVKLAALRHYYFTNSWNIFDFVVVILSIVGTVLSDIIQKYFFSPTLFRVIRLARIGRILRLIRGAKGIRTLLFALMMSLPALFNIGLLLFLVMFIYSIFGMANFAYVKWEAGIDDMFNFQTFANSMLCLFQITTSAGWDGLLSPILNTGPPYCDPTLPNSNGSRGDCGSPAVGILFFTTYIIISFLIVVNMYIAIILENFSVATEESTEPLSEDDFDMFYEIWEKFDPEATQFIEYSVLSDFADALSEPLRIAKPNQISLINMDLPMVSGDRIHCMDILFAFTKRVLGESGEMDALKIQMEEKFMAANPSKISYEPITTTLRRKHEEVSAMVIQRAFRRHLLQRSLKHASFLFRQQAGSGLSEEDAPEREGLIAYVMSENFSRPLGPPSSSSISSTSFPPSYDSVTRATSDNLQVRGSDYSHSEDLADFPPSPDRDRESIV
Protocol for E. coli UTI89: as §2

## N=C(N)NCC/C=C(\NC(=O)[C@H](CCCCN)NC(=O)[C@H](Cc1ccccc1F)NC(=O)[C@@H]1CCCN1C(=O)[C@@H](CCCN)NC(=O)CNC(=O)[C@H](CCN)NC(=O)[C@@H](NC(=O)[C@@H](N)CCCCN)[C@@H](O)CN)C(=O)O [NOSO-502] (H-K[Dab(3S-OH)][Dab]G[dOrn]P[Phe(2-F)]K[ΔZArg]-OH)
In vitro [1]; dog
  fraction unbound at 4 h, 2 μM: 0.176
In vitro [1]; human
  fraction unbound at 4 h, 2 μM: 0.187
In vitro [1]; mouse
  fraction unbound at 4 h, 2 μM: 0.198
In vitro [1]; rat
  fraction unbound at 4 h, 2 μM: 0.205
In vitro [2]; dog
  half-life at 1 μM: 1.68 h
In vitro [2]; human
  half-life at 1 μM: 2.42 h
In vitro [2]; monkey
  half-life at 1 μM: 2.45 h
In vitro [2]; mouse
  half-life at 1 μM: 1.93 h
In vitro [2]; rat
  half-life at 1 μM: 2.15 h
Escherichia coli MIN
  MIC: 4 µg/mL
[3]; Polymyxin B-resistant (2)
  MIC range: 4 to 8 µg/mL
[4]; Unknown mechanism (1)
  MIC range: 0.5 µg/mL (≈ 0.464 µM)
[4]; crrB F84S substitution (1)
  MIC range: 8 µg/mL (≈ 7.42 µM)
[4]; crrB G183V substitution (1)
  MIC range: 64 µg/mL (≈ 59.4 µM)
[4]; crrB N141Y substitution (1)
  MIC range: 16 µg/mL (≈ 14.8 µM)
[4]; crrB P151L substitution (1)
  MIC range: 128 µg/mL (≈ 119 µM)
[4]; mcr-1 (1)
  MIC range: 0.5 µg/mL (≈ 0.464 µM)
[4]; mgrB IS1R between +44 and +45 (2)
  MIC range: 1 µg/mL (≈ 0.927 µM)
[4]; mgrB IS1R into promoter between −45 and −46 (3)
  MIC range: 0.5 to 1 µg/mL
[4]; mgrB IS5 between +74 and +75 (4)
  MIC range: 0.5 to 2 µg/mL
[4]; mgrB IS903B between +69 and +70 (2)
  MIC range: 0.25 to 1 µg/mL
[4]; mgrB ISKpn14 into promoter between −28 and −29 (2)
  MIC range: 0.5 to 2 µg/mL
[4]; mgrB ISKpn26-like between +74 and +75 (2)
  MIC range: 1 µg/mL (≈ 0.927 µM)
[4]; mgrB M27K substitution (1)
  MIC range: 2 µg/mL (≈ 1.85 µM)
[4]; mgrB N42Y and K43I substitutions (1)
  MIC range: 2 µg/mL (≈ 1.85 µM)
[4]; mgrB W20R substitution (1)
  MIC range: 0.5 µg/mL (≈ 0.464 µM)
[4]; mgrB W47R substitution (1)
  MIC range: 1 µg/mL (≈ 0.927 µM)
[4]; mgrB full deletion (5)
  MIC range: 0.5 to 1 µg/mL
[4]; mgrB premature termination (6)
  MIC range: 0.5 to 1 µg/mL
[4]; phoQ R16C substitution (1)
  MIC range: 2 µg/mL (≈ 1.85 µM)
[4]; pmrA G53S substitution (2)
  MIC range: 1 to 2 µg/mL
[4]; pmrB L17Q substitution (1)
  MIC range: 1 µg/mL (≈ 0.927 µM)
[4]; pmrB T157P substitution (6)
  MIC range: 0.25 to 16 µg/mL
Citrobacter freundii MAU
  MIC: 1 µg/mL
[5]
  IC50: > 512 µM
E. coli EN122
  MIC: 4 µg/mL (≈ 3.71 µM)
CHO-K1 cells
  cells with micronuclei: 0.61%
E. coli UTI89
  MIC: 4 µg/mL (≈ 3.71 µM)
In vitro [6]; dog
  half-life at 10 μM: 2.63 h
In vitro [6]; human
  half-life at 10 μM: 1.32 h
In vitro [6]; monkey
  half-life at 10 μM: 1.6 h
In vitro [6]; mouse
  half-life at 10 μM: 0.9 h
In vitro [6]; rat
  half-life at 10 μM: 0.6 h

## polymyxin B [PMB]
Escherichia coli DOV
  MIC: 0.5 µg/mL
[7]
  MIC: 0.5 µg/mL
Escherichia coli COL
  MIC: 0.5 µg/mL
Escherichia coli MIN
  MIC: 0.5 µg/mL
[3]; 2 polymyxin B-resistant isolates
  MIC range: 4 to 32 µg/mL
Escherichia coli GAL
  MIC: 0.25 µg/mL
Escherichia coli PSP
  MIC: 0.5 µg/mL
Citrobacter freundii MAU
  MIC: 0.5 µg/mL

Source: publication PMC6125496 (Antimicrobial Agents and Chemotherapy, 2018)
